For the test, the target named is T1, Human M4 (Homo sapiens, UniProt P08173).
T1 construct: expressed in transfected cells
T1 sequence (P08173 1-479): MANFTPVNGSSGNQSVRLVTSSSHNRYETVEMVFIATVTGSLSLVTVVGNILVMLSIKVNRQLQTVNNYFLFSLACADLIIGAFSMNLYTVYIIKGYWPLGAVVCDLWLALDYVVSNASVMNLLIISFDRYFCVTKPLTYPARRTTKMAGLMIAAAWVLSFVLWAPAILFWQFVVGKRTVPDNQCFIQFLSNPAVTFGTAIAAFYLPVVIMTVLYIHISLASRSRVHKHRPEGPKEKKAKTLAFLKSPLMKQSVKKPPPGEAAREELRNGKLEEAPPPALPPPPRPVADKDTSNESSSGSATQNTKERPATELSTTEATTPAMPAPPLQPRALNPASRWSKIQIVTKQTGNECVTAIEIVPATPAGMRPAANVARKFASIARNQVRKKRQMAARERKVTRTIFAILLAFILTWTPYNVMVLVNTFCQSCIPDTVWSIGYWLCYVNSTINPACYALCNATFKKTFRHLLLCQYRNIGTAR
The experiment in a line: mAChR M4 cell-based functional assay (calcium flux, PAM mode). The following applies: hM4-Gqi5 CHO-K1 cells; for Emax at 30 µM: CHO-K1, % ACh maximum at 30 μM; for EC50: concentration-dependent increase in the EC20 acetylcholine response. A digest of the protocol: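 PAM potency (EC50) and Emax came from four-parameter fits of the rise in EC20 acetylcholine-evoked calcium signal (Fluo-4, FDSS, 1 Hz). Human M4/Gqi5 CHO-K1 stable line; 11-point 1:3 compound series preceded ACh EC20 addition at 144 s, with EC80 ACh added at 230 s.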
(Calcium assays in cells follow changes in intracellular calcium, usually with a dye or a luminescent sensor.)

What is called Emax is the maximal effect, on the per cent scale that the assay sets. The EC50 is the concentration giving half of the maximal effect. On to `[2H]C1(Oc2ccc3c(c2)OCCO3)CCN(c2nn3c(=O)cc(C(F)(F)F)nc3cc2C)CC1` [Compound 49, 7-(4-((2,3-dihydrobenzo[b][1,4]dioxin-6-yl)oxy)piperidin-1-yl-4-d)-8-methyl-2-(trifluoromethyl)-4H-pyrimido[1,2-b]pyridazin-4-one], for which the maximal response (Emax) at 30 µM worked out at 93% and the EC50 stood at 10 nM.

Take `[2H]C1(Oc2ccc3c(c2)OCCO3)CCN(c2nn3c(=O)c(F)c(C)nc3cc2C)CC1` [Compound 50, 7-(4-((2,3-dihydrobenzo[b][1,4]dioxin-6-yl)oxy)piperidin-1-yl-4-d)-3-fluoro-2,8-dimethyl-4H-pyrimido[1,2-b]pyridazin-4-one]: the maximum response (Emax) at 30 µM was 93% and the EC50 was determined as 9 nM.

Take `[2H]C1([2H])Oc2ccc(O[C@@H]3CCN(c4nn5c(=O)cc(C)nc5cc4C)C[C@H]3F)cc2OC1([2H])[2H]` [Compound 51, 7-((3R,4R)-4-((2,3-dihydrobenzo[b][1,4]dioxin-6-yl-2,2,3,3-d4)oxy)-3-fluoropiperidin-1-yl)-2,8-dimethyl-4H-pyrimido[1,2-b]pyridazin-4-one]: the Emax at 30 µM is 94% and the EC50 came out at 16 nM.

As to `Cc1ccc(OC2CCN(c3nn4c(=O)cc(C)nc4cc3C)CC2)cn1` [Compound 52, 2,8-dimethyl-7-(4-((6-methylpyridin-3-yl)oxy)piperidin-1-yl)-4H-pyrimido[1,2-b]pyridazin-4-one], the Emax at 30 µM turned out to be 84% and the EC50 worked out at 168 nM.

Consider `Cc1cc2nccc(=O)n2nc1N1CC[C@@H](Oc2ccc3c(c2)OCO3)[C@H](F)C1` [Compound 53, 7-((3R,4R)-4-(benzo[d][1,3]dioxol-5-yloxy)-3-fluoropiperidin-1-yl)-8-methyl-4H-pyrimido[1,2-b]pyridazin-4-one], for which the maximal effect (Emax) at 30 µM came out at 86% and the EC50 turned out to be 160 nM.

On to `Cc1cc2nccc(=O)n2nc1N1CC[C@@H](Oc2ccc3c(c2)CCOC3)[C@H](F)C1` [Compound 54, 7-((3R,4R)-3-fluoro-4-(isochroman-6-yloxy)piperidin-1-yl)-8-methyl-4H-pyrimido[1,2-b]pyridazin-4-one], for which the Emax at 30 µM stood at 89% and the EC50 is 319 nM.

For `Cc1cc2nccc(=O)n2nc1N1CC[C@@H](Oc2ccc3c(c2)OCCCO3)[C@H](F)C1` [Compound 55, 7-((3R,4R)-4-((3,4-dihydro-2H-benzo[b][1,4]dioxepin-7-yl)oxy)-3-fluoropiperidin-1-yl)-8-methyl-4H-pyrimido[1,2-b]pyridazin-4-one], the Emax at 30 µM was 80% and the EC50 was determined as 135 nM.

With `Cc1cc2nccc(=O)n2nc1N1CC[C@@H](Oc2ccc3c(c2)CCO3)[C@H](F)C1` [Compound 56, 7-((3R,4R)-4-((2,3-dihydrobenzofuran-5-yl)oxy)-3-fluoropiperidin-1-yl)-8-methyl-4H-pyrimido[1,2-b]pyridazin-4-one], the Emax at 30 µM worked out at 80% and the EC50 was determined as 206 nM.

With `Cc1cc2nccc(=O)n2nc1N1CC[C@@H](Oc2ccc3c(c2)OCCC3)[C@H](F)C1` [Compound 57, 7-((3R,4R)-4-(chroman-7-yloxy)-3-fluoropiperidin-1-yl)-8-methyl-4H-pyrimido[1,2-b]pyridazin-4-one], the Emax at 30 µM was 83% and the EC50 turned out to be 149 nM.

Turning to `[2H]C1(Oc2ccc3c(c2)OCO3)CCN(c2nn3c(=O)cc(C)nc3cc2C)CC1` [Compound 58, 7-(4-(benzo[d][1,3]dioxol-5-yloxy)piperidin-1-yl-4-d)-2,8-dimethyl-4H-pyrimido[1,2-b]pyridazin-4-one], the Emax at 30 µM stood at 88% and the EC50 was 52 nM.

For the compound `[2H]C1(Oc2ccc3c(c2)OCCCO3)CCN(c2nn3c(=O)cc(C)nc3cc2C)CC1` [Compound 59, 7-(4-((3,4-dihydro-2H-benzo[b][1,4]dioxepin-7-yl)oxy)piperidin-1-yl-4-d)-2,8-dimethyl-4H-pyrimido[1,2-b]pyridazin-4-one], the Emax at 30 µM was 85% and the EC50 is 59 nM.

As to `[2H]C1(Oc2ccc3c(c2)OCCO3)CCN(c2nn3c(=O)c(C)c(C)nc3cc2C)CC1` [Compound 60, 7-(4-((2,3-dihydrobenzo[b][1,4]dioxin-6-yl)oxy)piperidin-1-yl-4-d)-2,3,8-trimethyl-4H-pyrimido[1,2-b]pyridazin-4-one], the Emax at 30 µM was found to be 91% and the EC50 was determined as 28 nM.

For `[2H]C1(Oc2ccc3c(c2)OCCO3)CCN(c2nn3c(=O)cc(C(F)F)nc3cc2C)CC1` [Compound 61, 2-(difluoromethyl)-7-(4-((2,3-dihydrobenzo[b][1,4]dioxin-6-yl)oxy)piperidin-1-yl-4-d)-8-methyl-4H-pyrimido[1,2-b]pyridazin-4-one], the Emax at 30 µM was determined as 94% and the EC50 came to 12 nM.

For the compound `[2H]C1(Oc2ccc3c(c2)OCCO3)CCN(c2nn3c(=O)cc(C)nc3cc2C)CC1` [Compound 62, 7-(4-((2,3-dihydrobenzo[b][1,4]dioxin-6-yl)oxy)piperidin-1-yl-4-d)-2,8-dimethyl-4H-pyrimido[1,2-b]pyridazin-4-one], the maximum response (Emax) at 30 µM worked out at 99% and the EC50 is 47 nM.

Take `[2H]C1(Oc2ccc3c(c2)OCO3)CCN(c2nn3c(=O)cc(C(F)(F)F)nc3cc2C)CC1` [Compound 63, 7-(4-(benzo[d][1,3]dioxol-5-yloxy)piperidin-1-yl-4-d)-8-methyl-2-(trifluoromethyl)-4H-pyrimido[1,2-b]pyridazin-4-one]: the Emax at 30 µM was determined as 102% and the EC50 worked out at 342 nM.

Consider `[2H]C1(Oc2ccc3c(c2)OCCCO3)CCN(c2nn3c(=O)cc(C(F)(F)F)nc3cc2C)CC1` [Compound 64, 7-(4-((3,4-dihydro-2H-benzo[b][1,4]dioxepin-7-yl)oxy)piperidin-1-yl-4-d)-8-methyl-2-(trifluoromethyl)-4H-pyrimido[1,2-b]pyridazin-4-one], for which the maximum response (Emax) at 30 µM stood at 104% and the EC50 is 172 nM.

As to `[2H]C1(Oc2ccc3c(c2)OC([2H])([2H])C([2H])([2H])O3)CCN(c2nn3c(=O)cc(C(F)F)nc3cc2C)CC1` [Compound 65, 2-(difluoromethyl)-7-(4-((2,3-dihydrobenzo[b][1,4]dioxin-6-yl-2,2,3,3-d4)oxy)piperidin-1-yl-4-d)-8-methyl-4H-pyrimido[1,2-b]pyridazin-4-one], the Emax at 30 µM amounted to 108% and the EC50 stood at 20 nM.

For `[2H]C1(Oc2ccc3c(c2)OCO3)CCN(c2nn3c(=O)cc(C(F)F)nc3cc2C)CC1` [Compound 66, 7-(4-(benzo[d][1,3]dioxol-5-yloxy)piperidin-1-yl-4-d)-2-(difluoromethyl)-8-methyl-4H-pyrimido[1,2-b]pyridazin-4-one], the Emax at 30 µM was 108% and the EC50 was 17 nM.

On to `[2H]C1(Oc2ccc3c(c2)OCCCO3)CCN(c2nn3c(=O)cc(C(F)F)nc3cc2C)CC1` [Compound 67, 2-(difluoromethyl)-7-(4-((3,4-dihydro-2H-benzo[b][1,4]dioxepin-7-yl)oxy)piperidin-1-yl-4-d)-8-methyl-4H-pyrimido[1,2-b]pyridazin-4-one], for which the Emax at 30 µM is 109% and the EC50 was determined as 17 nM.

As for `[2H]C1(Oc2ccc3c(c2)OCO3)CCN(c2nn3c(=O)ccnc3cc2C)CC1` [Compound 68, 7-(4-(benzo[d][1,3]dioxol-5-yloxy)piperidin-1-yl-4-d)-8-methyl-4H-pyrimido[1,2-b]pyridazin-4-one], the Emax at 30 µM came out at 91% and the EC50 is 288 nM.

Turning to `[2H]C1(Oc2ccc3c(c2)OC([2H])([2H])C([2H])([2H])O3)CCN(c2nn3c(=O)ccnc3c(C)c2C)CC1` [Compound 69, 7-(4-((2,3-dihydrobenzo[b][1,4]dioxin-6-yl-2,2,3,3-d4)oxy)piperidin-1-yl-4-d)-8,9-dimethyl-4H-pyrimido[1,2-b]pyridazin-4-one], the maximal response (Emax) at 30 µM amounted to 97% and the EC50 is 20 nM.

As to `[2H]C1(Oc2ccc3c(c2)OCCO3)CCN(c2nn3c(=O)ccnc3c(C)c2C)CC1` [Compound 70, 7-(4-((2,3-dihydrobenzo[b][1,4]dioxin-6-yl)oxy)piperidin-1-yl-4-d)-8,9-dimethyl-4H-pyrimido[1,2-b]pyridazin-4-one], the Emax at 30 µM is 96% and the EC50 turned out to be 16 nM.

As for `Cc1c(N2CCC(Oc3ccc4c(c3)OCCO4)CC2)nn2c(=O)ccnc2c1C` [Compound 71, 7-(4-((2,3-dihydrobenzo[b][1,4]dioxin-6-yl)oxy)piperidin-1-yl)-8,9-dimethyl-4H-pyrimido[1,2-b]pyridazin-4-one], the Emax at 30 µM was 95% and the EC50 turned out to be 21 nM.

Turning to `Cc1cc(=O)n2nc(N3CCC(Oc4ccc5c(c4)C(=O)NCC5)CC3)c(C)cc2n1` [Compound 72, 2,8-dimethyl-7-(4-((1-oxo-1,2,3,4-tetrahydroisoquinolin-7-yl)oxy)piperidin-1-yl)-4H-pyrimido[1,2-b]pyridazin-4-one], the maximal response (Emax) at 30 µM stood at 74% and the EC50 came out at 1540 nM.
